The source of these data is ChEMBL document CHEMBL1123009, “Synthesis and antimicrobial evaluation of bicyclomycin analogues” (1985).

The subject of test [1] is Staphylococcus aureus. Nature of the test: Minimum inhibitory concentration against gram-negative and gram-positive bacterial strains; Not active. Format: functional, organism-based.
The test system of test [2] is Staphylococcus aureus. Nature of the test: Compound was evaluated for its antibiotic activity against gram-negative and gram-positive bacterial strains; NA = not active. Format: functional, organism-based.
The subject of test [3] is Micrococcus luteus. Nature of the test: Minimum inhibitory concentration against Micrococcus luteus PCI. Format: functional.
Test [4] deals with Bacillus. Nature of the test: Minimum inhibitory concentration against Bacillus sp. TA. Format: functional.
Test [5] concerns Acinetobacter calcoaceticus. Nature of the test: Minimum inhibitory concentration against Acinetobacter calcoaceticus PCl3. Format: functional.
Test [6] concerns Saccharomyces cerevisiae. Nature of the test: Minimum inhibitory concentration against Saccharomyces cerevisiae 90. The test is classed as functional.
Test [7] relates to Serratia. Nature of the test: Minimum inhibitory concentration against Serratia sp.101. The test is classed as functional.
In test [8] the test system is Streptomyces sp. Nature of the test: Minimum inhibitory concentration against Gram positive filament Streptomyces cellulose 097. The test is classed as functional.
Test [9] relates to Penicillium digitatum. Nature of the test: Minimum inhibitory concentration against Penicillium digitatum 0184. Format: functional.
Test [10] concerns Proteus vulgaris. The test is described as follows: Minimum inhibitory concentration against Proteus vulgaris 101N. The test is classed as functional.
For test [11], the system named is Escherichia coli. The test is described as follows: Minimum inhibitory concentration against Escherichia coli 94. The test is classed as functional.
Test [12] relates to Serratia marcescens. The test is described as follows: Minimum inhibitory concentration against Serratia marcescens SM. The test is classed as functional.
Test [13] has as its system Mycolicibacterium phlei. The test is described as follows: Minimum inhibitory concentration against Mycobacterium phlei 78. The test is classed as functional.
Test [14] deals with Priestia megaterium. Nature of the test: Minimum inhibitory concentration against Bacillus megaterium 164. The test is classed as functional.
The subject of test [15] is Pseudomonas aeruginosa. Nature of the test: Minimum inhibitory concentration against Pseudomonas aeruginosa 56. The test is classed as functional.
The subject of test [16] is Enterococcus faecium. Nature of the test: Minimum inhibitory concentration against Streptococcus faecium ATCC 8043. The test is classed as functional.
For test [17], the system named is Staphylococcus aureus. The test is described as follows: Minimum inhibitory concentration against Staphylococcus aureus 82. The test is classed as functional.
The subject of test [18] is Paecilomyces variotii. Nature of the test: Minimum inhibitory concentration against Paecilomyces varioti M16. Format: functional.
Test [19] concerns Bacillus. Nature of the test: Minimum inhibitory concentration against Bacillus sp. E. The test is classed as functional.
Test [20] has as its system Bacillus subtilis. The test is described as follows: Minimum inhibitory concentration against Bacillus subtilis 558. The test is classed as functional.
The subject of test [21] is Candida albicans. Nature of the test: Minimum inhibitory concentration against yeast Candida albicans 155. Format: functional.
For test [22], the system named is Klebsiella pneumoniae. The test is described as follows: Minimum inhibitory concentration against Klebsiella pneumoniae 369. Format: functional.

≈ marks a conversion by molar mass, not a printed value. Calls of active or inactive are those of the source. The rule behind the calls is not given here.

With `O=C1N[C@@]2(O)CCCOC1NC2=O`, in [1], the MIC result was “inactive”.

`O=C1N[C@H]2CCCOC1NC2=O`: the MIC entry in [1] is “inactive”.

`CS[C@@]12CCCOC(C(=O)N1C)N(C)C2=O`: in test [1], the MIC result is “inactive”.

As for `C=CC1COC2C(=O)N(Cc3ccccc3)[C@@H]1C(=O)N2Cc1ccccc1` (some centres not stated), the MIC result in [1] was “inactive”.

As to `C=C1CCOC2NC(=O)[C@H]1NC2=O`, in [1], the MIC result was “inactive”.

As for `O=C1[C@@H]2[C@H](CO)COC(C(=O)N2Cc2ccccc2)N1Cc1ccccc1`, the MIC result in test [1] is “inactive”.

`C[C@](O)(CO)[C@H](O)C12NC(=O)[C@](O)(CCCO1)NC2=O`: the MIC result in test [1] was “inactive”.

Regarding `CN1C(=O)[C@]2(C(=O)c3ccccc3)CCOC1C(=O)N2C`, in test [2], the MIC entry is “inactive”.

`C=C1CCOC2C(=O)N(Cc3ccccc3)[C@]1(O)C(=O)N2Cc1ccccc1`: the MIC in test [3] was 500 µg/mL (≈ 1320 µM); in test [4], 250 µg/mL (≈ 661 µM); in [5], above 1000 µg/mL; in [6], above 1000 µg/mL; in test [7], above 1000 µg/mL; in test [8] it was 500 µg/mL (≈ 1320 µM). Besides, the minimal inhibitory concentration (MIC) in test [9] was above 1000 µg/mL; in test [10] it was above 1000 µg/mL; in [11], above 1000 µg/mL; in test [12] it was above 1000 µg/mL; in [13], above 1000 µg/mL; in test [14] it was 500 µg/mL (≈ 1320 µM). Moreover, the MIC in [15] is above 1000 µg/mL; in test [16], above 1000 µg/mL; in test [17] it was above 1000 µg/mL; in test [18], above 1000 µg/mL; in test [19] it was above 1000 µg/mL; in [20] it was 250 µg/mL (≈ 661 µM). For the same compound, the MIC in test [21] and in [22] was above 1000 µg/mL throughout.

With `CN1C(=O)[C@]2(C(O)c3ccccc3)CCCOC1C(=O)N2C` (some centres not stated), in test [1], the MIC entry is “inactive”.

Turning to `O=C1C2OCCC[C@@](O)(C(=O)N2Cc2ccccc2)N1Cc1ccccc1`, the MIC result in [1] is “inactive”.

Consider `CN1C(=O)[C@@H]2CCCOC1C(=O)N2C`, for which, in test [1], the MIC entry is “inactive”.

For the compound `COc1ccc(CN2C(=O)[C@@H]3CCCOC2C(=O)N3Cc2ccc(OC)cc2)cc1`, the MIC result in test [1] was “inactive”.

As to `C=C1COC2C(=O)N(Cc3ccccc3)[C@@H]1C(=O)N2Cc1ccccc1`, in test [1], the MIC result was “inactive”.

As to `C=C1CCOC2C(=O)N(Cc3ccccc3)[C@@H]1C(=O)N2Cc1ccccc1`, the MIC entry in test [1] is “inactive”.

`O=C1[C@@H]2CCCOC(C(=O)N2Cc2ccccc2)N1Cc1ccccc1`: in [1], the MIC entry is “inactive”.

As to `C=CC1COC2NC(=O)[C@H]1NC2=O` (some centres not stated), in test [2], the MIC entry is “inactive”.

With `CSC12OCCC[C@@](C)(C(=O)N1C)N(C)C2=O`, in [2], the MIC entry is “inactive”.

`COc1ccc(N2C(=O)[C@@H]3CCCOC2C(=O)N3c2ccc(OC)cc2)cc1`: in test [1], the MIC entry was “inactive”.

Consider `C=C1CCOC2NC(=O)[C@@]1(O)NC2=O`, for which the MIC result in test [2] is “inactive”.

Turning to `CN1C(=O)[C@@H]2CCOC1C(=O)N2C`, the MIC result in test [2] is “inactive”.

On to `C=C1CCOC2([C@@H](O)[C@@](C)(O)CO)NC(=O)[C@@]1(O)NC2=O`, for which, in test [1], the MIC entry is “inactive”.

`C=C1CCO[C@]2([C@@H](O)[C@@](C)(O)CO)NC(=O)[C@@]1(O)NC2=O` [BICOZAMYCIN]: the MIC in test [3] is above 1000 µg/mL; in [4], above 1000 µg/mL; in [5], 1000 µg/mL (≈ 3310 µM); in test [6] it was above 1000 µg/mL; in [7], above 1000 µg/mL; in [8], 500 µg/mL (≈ 1650 µM). Besides, the MIC in test [9] was above 1000 µg/mL; in [10] it was above 1000 µg/mL; in test [11], 250 µg/mL (≈ 827 µM); in test [12] it was above 1000 µg/mL; in test [13], 1000 µg/mL (≈ 3310 µM); in test [14], above 1000 µg/mL. Moreover, the minimal inhibitory concentration (MIC) in [15], in test [16], in test [17], in test [18], in test [19] and in test [20] was above 1000 µg/mL throughout. In addition, the MIC in [21] was above 1000 µg/mL; in test [22], 250 µg/mL (≈ 827 µM).

`C[C@](O)(CO)[C@H](O)C12NC(=O)[C@H](CCCO1)NC2=O`: the MIC result in test [1] is “inactive”.
